Reference: article PMC9501810, “Bitter Peptides YFYPEL, [sequence], and [sequence], Released during Gastric Digestion of Casein, Stimulate Mechanisms of Gastric Acid Secretion via Bitter Taste Receptors TAS2R16 and TAS2R38” (Journal of Agricultural and Food Chemistry, 2022)
Values joined by “and” are separate entries in the source; they are usually repeats but may differ in a detail not shown here. Equal values may be shown once.

Tests used:
Format in all cases: cell-based, human
HGT-1 cells = assay: Proton secretion assay (intracellular proton index IPX, SNARF-1-AM); conditions: for ΔIPX (change in intracellular proton index vs untreated cells): 0.1 µM, 10 min incubation in KRHB, IPX = log2 of 580/640 ratio, negative = stimulated proton secretion, n = 4–8; for ΔIPX (change in intracellular proton index vs untreated cells) / ΔIPX on co-incubation with probenecid: mean ± SEM; for proton secretion with peptide alone compared to untreated control cells: VAPFPEVF 17.5 µM, YFYPEL 0.03 µM, YQEPVLGPVRGPFPIIV 0.4 µM, p < 0.01; for proton secretion with peptide alone compared to untreated control cells / ΔIPX on co-incubation with probenecid: 10 min; for concentration with the lowest IPX value (minimum of curve fit; highest impact on secretory activity): curve fit over 0.01–200 µM proton secretion profile; for ΔIPX on co-incubation with probenecid: peptide (VAPFPEVF 17.5 µM, YFYPEL 0.03 µM, YQEPVLGPVRGPFPIIV 0.4 µM) + 1 mM probenecid, vs untreated cells
Procedure: The measurement of proton secretion from HGT-1 cells represents a well-established model for the identification of bitter compounds. By affecting extraoral bitter taste receptors with bitter compounds, a modulatory effect on proton secretion can be measured. For this purpose, cells were washed with KRHB and incubated with 3 μM of the intracellular pH indicator 1,5 carboxy-seminaphto-rhodafluor acetoxymethyl ester (SNARF-1-AM) under standard conditions. After 30 min, the cells were washed again with KRHB and then incubated with casein (0.01–10 μM equimolar related to the relevant forms αS1- and β-casein), hydrolysate (0.01–10 μM), or the peptides (0.01–200 μM). […] All substances were dissolved and diluted in KRHB. 1 mM histamine was used as a positive control. Measurements were performed using FlexStation 3 (Molecular Devices, USA). The excitation wavelength was 488 nm, and the emission wavelengths were 580 and 640 nm. For calibration (pH range 7.0–8.0), the intracellular and extracellular pH was adjusted with 2 μM nigericin in potassium buffer (20 mM NaCl, 110 mM KCl, 1 mM CaCl2, 1 mM MgSO4, 18 mM D-glucose, and 20 mM HEPES). The intracellular proton index (IPX) was calculated as the log2 value of the 580/640 ratio and compared with cells without treatment. Negative values represent increased secretion of protons and therefore stimulation of mechanisms regulating gastric acid secretion in HGT-1 cells. In contrast, positive values represent an inhibition of secretion compared to the untreated control.

TAS2R7 = assay: RT-qPCR gene expression of TAS2R7 in HGT-1 cells; conditions: VAPFPEVF 17.5 µM, YFYPEL 0.03 µM, YQEPVLGPVRGPFPIIV 0.4 µM, normalized to PPIA and GAPDH and untreated cells, mean, n = 3–5
Procedure: (§1) For mRNA expression analysis, 800,000 cells were seeded in a T25 cell culture flask (25 cm^2) 1 day before the experiment. After incubation with 17.5 μM […], 0.03 μM YFYPEL, or 0.4 μM […] for 15, 30, 60, and 120 min, RNA was isolated using the peqGOLD RNA Kit (VWR Peqlab, USA) following the manufacturer’s protocol. Determination of RNA concentration (A260/A280 between 2.03 and 2.09) was performed on a NanoDrop One^c (Thermo Fisher Scientific Inc., USA). RNA integrity number (RIN 9.9–10.0, version 2.6, assay class Eukaryote Total RNA Nano) was analyzed using a 2100 Bioanalyzer (Agilent Technologies, USA). Removal of gDNA and synthesis of cDNA were performed using the iScript gDNA Clear cDNA Synthesis Kit (BioRad, Feldkirchen, Germany) following the manufacturer’s protocol. Real-time-qPCR (RT-qPCR) was performed with 50 ng cDNA amplified with SsoAdvanced Universal SYBR Green Supermix (Bio-Rad Laboratories, Inc., USA). The sequences of the forward and reverse primers of the 25 TAS2Rs were taken from Liszt et al.([13]) (Supporting Information Table-SI 3). Verified primers for the TAS1Rs (TAS1R1: qHsaCID0013443; TAS1R2: qHsaCID0016106; TAS1R3: qHsaCED0002321) and for MAPK1 (qHsaCEP0050000) were obtained from Bio-Rad Laboratories. PPIA[37] and GAPDH[38] were used as reference genes. The effects of the peptides on gene expression were analyzed in comparison to untreated control cells.

TAS2R8 = assay: RT-qPCR gene expression of TAS2R8 in HGT-1 cells; conditions: VAPFPEVF 17.5 µM, YFYPEL 0.03 µM, YQEPVLGPVRGPFPIIV 0.4 µM, normalized to PPIA and GAPDH and untreated cells, mean, n = 3–5
Procedure: as §1

TAS2R16 = assay: RT-qPCR gene expression of TAS2R16 in HGT-1 cells; conditions: VAPFPEVF 17.5 µM, YFYPEL 0.03 µM, YQEPVLGPVRGPFPIIV 0.4 µM, normalized to PPIA and GAPDH and untreated cells, mean, n = 3–5
Procedure: as §1, with “cells. […]” for “cells.”

TAS2R19 = assay: RT-qPCR gene expression of TAS2R19 in HGT-1 cells; conditions: VAPFPEVF 17.5 µM, YFYPEL 0.03 µM, YQEPVLGPVRGPFPIIV 0.4 µM, normalized to PPIA and GAPDH and untreated cells, mean, n = 3–5
Procedure: as §1

TAS2R20 = assay: RT-qPCR gene expression of TAS2R20 in HGT-1 cells; conditions: VAPFPEVF 17.5 µM, YFYPEL 0.03 µM, YQEPVLGPVRGPFPIIV 0.4 µM, normalized to PPIA and GAPDH and untreated cells, mean, n = 3–5
Procedure: as §1

TAS2R30 = assay: RT-qPCR gene expression of TAS2R30 in HGT-1 cells; conditions: VAPFPEVF 17.5 µM, YFYPEL 0.03 µM, YQEPVLGPVRGPFPIIV 0.4 µM, normalized to PPIA and GAPDH and untreated cells, mean, n = 3–5
Procedure: as §1

TAS2R46 = assay: RT-qPCR gene expression of TAS2R46 in HGT-1 cells; conditions: VAPFPEVF 17.5 µM, YFYPEL 0.03 µM, YQEPVLGPVRGPFPIIV 0.4 µM, normalized to PPIA and GAPDH and untreated cells, mean, n = 3–5
Procedure: as §1

Substance | ΔIPX (change in intracellular proton index vs untreated cells) (HGT-1 cells) | proton secretion with peptide alone compared to untreated control cells (HGT-1 cells) | concentration with the lowest IPX value (minimum of curve fit; highest impact on secretory activity) (HGT-1 cells) [µM] | ΔIPX on co-incubation with probenecid (HGT-1 cells) | change in gene expression of TAS2R7 (TAS2R7; incubation 15 min) [fold change] | change in gene expression of TAS2R7 (TAS2R7; incubation 30 min) [fold change] | change in gene expression of TAS2R7 (TAS2R7; incubation 60 min) | change in gene expression of TAS2R7 (TAS2R7; incubation 120 min) [fold change] | change in gene expression of TAS2R8 (TAS2R8; incubation 15 min) [fold change] | change in gene expression of TAS2R8 (TAS2R8; incubation 30 min) [fold change] | change in gene expression of TAS2R8 (TAS2R8; incubation 60 min) [fold change] | change in gene expression of TAS2R8 (TAS2R8; incubation 120 min) [fold change] | change in gene expression of TAS2R16 (TAS2R16; incubation 15 min) [fold change] | change in gene expression of TAS2R16 (TAS2R16; incubation 30 min) | change in gene expression of TAS2R16 (TAS2R16; incubation 60 min) [fold change] | change in gene expression of TAS2R16 (TAS2R16; incubation 120 min) [fold change] | change in gene expression of TAS2R19 (TAS2R19; incubation 15 min) [fold change] | change in gene expression of TAS2R19 (TAS2R19; incubation 30 min) [fold change] | change in gene expression of TAS2R19 (TAS2R19; incubation 60 min) [fold change] | change in gene expression of TAS2R19 (TAS2R19; incubation 120 min) [fold change] | other results
YFYPEL [bitter casein peptide αS1-CN144–149] | −0.253 ± 0.027 | increased proton secretion | 0.03 | −0.001 ± 0.019 | 1.23 | 2.50 | 6.71 fold change and 6.71 ± 1.56 fold change | 1.18 | 1.62 | 1.90 | 1.87 | 1.69 | 2.58 | 3.19 fold change and 3.19 ± 0.50 fold change | 2.44 | 2.51 | 1.60 | 0.82 | 0.79 | 1.05 | change in gene expression of TAS2R20 (TAS2R20; incubation 15 min): 1.37 fold change; change in gene expression of TAS2R20 (TAS2R20; incubation 30 min): 0.93 fold change; change in gene expression of TAS2R20 (TAS2R20; incubation 60 min): 0.94 fold change; change in gene expression of TAS2R20 (TAS2R20; incubation 120 min): 1.16 fold change; change in gene expression of TAS2R30 (TAS2R30; incubation 15 min): 1.79 fold change; change in gene expression of TAS2R30 (TAS2R30; incubation 30 min): 0.62 fold change; change in gene expression of TAS2R30 (TAS2R30; incubation 60 min): 0.89 fold change; change in gene expression of TAS2R30 (TAS2R30; incubation 120 min): 1.15 fold change; change in gene expression of TAS2R46 (TAS2R46; incubation 15 min): 1.70 fold change; change in gene expression of TAS2R46 (TAS2R46; incubation 30 min): 0.73 fold change; change in gene expression of TAS2R46 (TAS2R46; incubation 60 min): 1.01 fold change; change in gene expression of TAS2R46 (TAS2R46; incubation 120 min): 1.30 fold change
YQEPVLGPVRGPFPIIV [bitter casein peptide βA1/A2-CN193–209] | −0.203 ± 0.048 | increased proton secretion | 0.4 | −0.020 ± 0.036 | 0.49 | 0.74 | 0.70 fold change | 1.82 | 1.39 | 2.45 | 1.87 | 1.93 | 2.61 | 3.46 fold change and 3.46 ± 0.58 fold change | 2.50 | 3.00 | 0.85 | 1.58 | 1.27 | 1.05 | change in gene expression of TAS2R20 (TAS2R20; incubation 15 min): 0.95 fold change; change in gene expression of TAS2R20 (TAS2R20; incubation 30 min): 1.42 fold change; change in gene expression of TAS2R20 (TAS2R20; incubation 60 min): 1.38 fold change; change in gene expression of TAS2R20 (TAS2R20; incubation 120 min): 1.31 fold change; change in gene expression of TAS2R30 (TAS2R30; incubation 15 min): 0.74 fold change; change in gene expression of TAS2R30 (TAS2R30; incubation 30 min): 1.88 fold change; change in gene expression of TAS2R30 (TAS2R30; incubation 60 min): 1.20 fold change; change in gene expression of TAS2R30 (TAS2R30; incubation 120 min): 0.89 fold change; change in gene expression of TAS2R46 (TAS2R46; incubation 15 min): 0.69 fold change; change in gene expression of TAS2R46 (TAS2R46; incubation 30 min): 1.73 fold change; change in gene expression of TAS2R46 (TAS2R46; incubation 60 min): 1.30 fold change; change in gene expression of TAS2R46 (TAS2R46; incubation 120 min): 1.06 fold change
